The text below walks through data of patent publication US20180118708A1, “CYCLIC COMPOUND” (Takeda Pharmaceutical Company Limited, priority 2015, published 2018).

One assay has as its system TNFα. Description: Effect with respect to blood TNF-α concentration elevation by LPS stimulation. Format: in vivo. Conditions: oral, female BALB/c mice, LPS 5 mg/kg i.p. one hour after compound, serum sampled one hour later, vs control group. The text has this: Effect With Respect to Blood TNF-α Concentration Elevation by LPS Stimulation
Various kinds of cytokines are produced in vivo accompanying inflammatory response and abnormal immunity or the like. Therefore, the action of test compound with respect to blood TNFa concentration rise was investigated using laboratory animals.
Female BALB/c mice (6 weeks old) were purchased, and, after preliminary rearing for about 1 week, the mice were divided into groups of four animals. […] Solvent was administered to control group in the same way. LPS (5 mg/kg) was administered intraperitoneally to the test group and the control group one hour after the administration of the test compound or solvent, and blood was sampled one hour later. The serum was separated from the obtained blood, and the TNFα concentration in the serum was measured using an assay kit made by R&D Systems Inc. The inhibition rates of the test group with respect to the control group are shown in Table 3.

In the next assay the target is T1, TLR4 (Mus musculus, UniProt Q9QUK6).
T1 construct: endogenous in cells; host or cells: RAW264.7 (murine macrophage cell line)
T1 sequence (Q9QUK6 26-835): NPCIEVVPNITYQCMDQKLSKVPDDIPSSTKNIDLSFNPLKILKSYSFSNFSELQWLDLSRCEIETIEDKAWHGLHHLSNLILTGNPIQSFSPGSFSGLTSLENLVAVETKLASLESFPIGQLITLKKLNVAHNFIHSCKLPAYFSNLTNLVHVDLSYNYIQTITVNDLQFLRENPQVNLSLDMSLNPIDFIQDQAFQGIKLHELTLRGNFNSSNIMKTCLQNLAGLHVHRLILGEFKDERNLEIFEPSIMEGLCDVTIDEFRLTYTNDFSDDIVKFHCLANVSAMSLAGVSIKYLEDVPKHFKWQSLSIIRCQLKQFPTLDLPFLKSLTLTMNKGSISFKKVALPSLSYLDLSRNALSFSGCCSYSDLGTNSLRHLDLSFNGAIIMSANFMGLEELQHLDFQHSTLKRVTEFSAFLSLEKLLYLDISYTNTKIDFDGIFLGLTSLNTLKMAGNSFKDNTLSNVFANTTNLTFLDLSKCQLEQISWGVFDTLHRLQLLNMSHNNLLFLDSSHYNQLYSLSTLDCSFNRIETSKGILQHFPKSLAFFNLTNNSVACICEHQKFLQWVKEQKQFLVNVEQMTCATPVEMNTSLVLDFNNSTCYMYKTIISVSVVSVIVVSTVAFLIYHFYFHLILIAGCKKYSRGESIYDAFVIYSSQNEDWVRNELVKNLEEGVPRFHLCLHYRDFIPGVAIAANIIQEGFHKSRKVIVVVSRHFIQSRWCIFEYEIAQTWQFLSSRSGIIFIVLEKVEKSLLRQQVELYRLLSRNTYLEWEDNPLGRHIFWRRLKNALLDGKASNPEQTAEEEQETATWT
T1 sequence (Q9JHF9 19-160 partner): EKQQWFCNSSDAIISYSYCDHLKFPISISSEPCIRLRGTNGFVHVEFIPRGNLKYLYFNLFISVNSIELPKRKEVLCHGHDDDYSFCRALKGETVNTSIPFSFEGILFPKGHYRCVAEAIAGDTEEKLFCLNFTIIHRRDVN
The experiment in a line: Inhibitory effect with respect to NO production (LPS/interferon γ stimulated RAW264.7 cells). Format: cell-based, murine. Conditions: test compound 100 nM, LPS 1.25 ng/mL + mouse interferon γ 0.2 ng/mL, nitrite ion in culture supernatant. As to the method: Inhibitory Effect With Respect to NO Production
The inhibitory effect on TLR4 was determined using the inhibition rate due to the test compound with respect to NO production as a result of addition of lipopolysaccharide (LPS) using murine macrophage cell line RAW264.7. The cells were adjusted to 2×10^6 cells/mL using RPM1-1640 culture medium (phenol red free) supplemented with 10% inactivated bovine fetal serum, and were plated on 384 well plate so as to contain 6×10^4 cells/30 μL per well. Thereafter the cells were cultured at 37° C. overnight under 5% CO2/95% air. The test compound dissolved in DMSO was diluted 200 times using RPM1-1640 culture medium and adjusted so as to form a compound concentration of 500 nM. The prepared test compound 10 μL (final concentration 100 nM) was added to the cells, and LPS (Sigma) and mouse interferon γ (Wako Pure Chemicals) were added in amounts of 10 μL so as to form final concentrations of 1.25 ng/mL and 0.2 ng/mL respectively. The cells were further cultured overnight, and then the nitrite ion (stable NO metabolite) concentration in the culture supernatant was measured as an index of NO production. The nitrite ion concentration was assayed by adding 10 μL of 20 μg/mL 2,3-diamino naphthalene (DAN) dissolved in 0.2N HCl to 20 μL culture supernatant, incubating at room temperature for ten minutes, and then adding 10 μL of 0.5N NaOH, and measuring the fluorescent value at 460 nm (excitation wavelength 355 nm) using an EnVision plate reader (Perkin Elmer). The NO production inhibition rate (%) was calculated using the value without the addition of stimulating agent as control of 100% inhibition, and the value without the addition of the compound as control of 0% inhibition.

As to `CCOC(=O)C1=CC2(CCC1S(=O)(=O)Cc1ccc(F)cc1Cl)O[C@@H](CO)[C@H](CO)O2` (single isomer, unassigned) [Compound 7], the “Blood TNFα inhibition rate (% inhibition)” value in the assay on TNFα (Dose 10 mg/kg) is listed as 92.4 % inhibition. In addition, on TLR4 (0.1 µM), the “NO production inhibitory effect at 100 nM (% inhibition)” value stood at 100 % inhibition.

Consider `CCOC(=O)C1=CC2(CCC1S(=O)(=O)Cc1ccc(F)cc1Cl)O[C@H](CO)[C@@H](CO)O2` (single isomer, unassigned) [Compound 14], for which the “Blood TNFα inhibition rate (% inhibition)” value with TNFα (Dose 10 mg/kg) is given as 82.8 % inhibition. Further, the “NO production inhibitory effect at 100 nM (% inhibition)” value on TLR4 (0.1 µM) stood at 100 % inhibition.

`CCOC(=O)C1=CC2(CCC1S(=O)(=O)Cc1ccc(F)cc1Cl)O[C@@H](CO)[C@H](CO)O2` (stereo partly drawn) [Compound 1, ethyl (2S,3S)-8-((2-chloro-4-fluorobenzyl)sulfonyl)-2,3-bis(hydroxymethyl)-1,4-dioxaspiro[4.5]dec-6-ene-7-carboxylate]: the “Blood TNFα inhibition rate (% inhibition)” value in the assay with TNFα (Dose 20 mg/kg) came to 83.3 % inhibition. Moreover, at TLR4, the “NO production inhibitory effect at 100 nM (% inhibition)” value was found to be 107 % inhibition.

For `CCOC(=O)C1=CC2(CCC1S(=O)(=O)Cc1ccc(F)cc1Cl)O[C@H](CO)[C@@H](CO)O2` (stereo partly drawn) [Compound 2, ethyl (2R,3R)-8-((2-chloro-4-fluorobenzyl)sulfonyl)-2,3-bis(hydroxymethyl)-1,4-dioxaspiro[4.5]dec-6-ene-7-carboxylate], in the assay with TNFα (Dose 20 mg/kg), the “Blood TNFα inhibition rate (% inhibition)” value is on record as 84.5 % inhibition. Further, the “NO production inhibitory effect at 100 nM (% inhibition)” value at TLR4 worked out at 106 % inhibition.

For the compound `CCOC(=O)C1=CC2(CCC1S(=O)(=O)Cc1cccc(Cl)c1)O[C@H](CO)[C@@H](CO)O2` (stereo partly drawn) [Compound 3, ethyl (2R,3R)-8-((3-chlorobenzyl)sulfonyl)-2,3-bis(hydroxymethyl)-1,4-dioxaspiro[4.5]dec-6-ene-7-carboxylate], the “Blood TNFα inhibition rate (% inhibition)” value in the assay with TNFα (Dose 20 mg/kg) amounted to 84.9 % inhibition. Moreover, on TLR4, the “NO production inhibitory effect at 100 nM (% inhibition)” value is given as 100 % inhibition.

In the case of `CCOC(=O)C1=CC2(CCC1S(=O)(=O)Cc1cccc(Cl)c1)O[C@@H](CO)[C@H](CO)O2` (stereo partly drawn) [Compound 24, ethyl (2S,3S)-8-((3-chlorobenzyl)sulfonyl)-2,3-bis(hydroxymethyl)-1,4-dioxaspiro[4.5]dec-6-ene-7-carboxylate], the “Blood TNFα inhibition rate (% inhibition)” value with TNFα (Dose 20 mg/kg) came to 91.5 % inhibition. In addition, on TLR4, the “NO production inhibitory effect at 100 nM (% inhibition)” value was 100 % inhibition.

Turning to `CCOC(=O)C1=CC2(CCC1S(=O)(=O)Cc1cccc(C)c1)O[C@@H](CO)[C@H](CO)O2` (stereo partly drawn) [Compound 25, ethyl (2S,3S)-2,3-bis(hydroxymethyl)-8-((3-methylbenzyl)sulfonyl)-1,4-dioxaspiro[4.5]dec-6-ene-7-carboxylate], the “Blood TNFα inhibition rate (% inhibition)” value in the assay with TNFα (Dose 20 mg/kg) turned out to be 93.8 % inhibition. Also, at TLR4, the “NO production inhibitory effect at 100 nM (% inhibition)” value is 98 % inhibition.

With `CCOC(=O)C1=CC2(CCC1S(=O)(=O)Cc1ccc(F)cc1Cl)OC[C@H](CNC(=O)OCc1ccccc1)O2` (stereo partly drawn) [Compound 29, ethyl (2S)-2-((((benzyloxy)carbonyl)amino)methyl)-8-((2-chloro-4-fluorobenzyl)sulfonyl)-1,4-dioxaspiro[4.5]dec-6-ene-7-carboxylate], at TLR4, the “NO production inhibitory effect at 100 nM (% inhibition)” value amounted to 86 % inhibition.

As to `CCOC(=O)C1=CC2(CC[C@H]1S(=O)(=O)Cc1cccc(Cl)c1)O[C@H](CO)[C@@H](CO)O2` [Compound 30, ethyl (2R,3R,8R)-8-((3-chlorobenzyl)sulfonyl)-2,3-bis(hydroxymethyl)-1,4-dioxaspiro[4.5]dec-6-ene-7-carboxylate], the “NO production inhibitory effect at 100 nM (% inhibition)” value on TLR4 stood at 106 % inhibition.

In the case of `CCOC(=O)C1=CC2(CC[C@H]1S(=O)(=O)Cc1ccccc1Cl)O[C@H](CO)[C@@H](CO)O2` [Compound 31, ethyl (2R,3R,8R)-8-((2-chlorobenzyl)sulfonyl)-2,3-bis(hydroxymethyl)-1,4-dioxaspiro[4.5]dec-6-ene-7-carboxylate], the “NO production inhibitory effect at 100 nM (% inhibition)” value at TLR4 is 103 % inhibition.

`CCOC(=O)C1=CC2(CC[C@H]1S(=O)(=O)Cc1ccccc1Cl)O[C@@H](CO)[C@H](CO)O2` [Compound 32, ethyl (2S,3S,8R)-8-((2-chlorobenzyl)sulfonyl)-2,3-bis(hydroxymethyl)-1,4-dioxaspiro[4.5]dec-6-ene-7-carboxylate]: the “NO production inhibitory effect at 100 nM (% inhibition)” value at TLR4 stood at 114 % inhibition.
